Experiments:
Type in all cases: in vivo
[1] = tested on: Lolium perenne (LOLPE); experiment: B1 pre-emergence herbicidal activity; conditions: Test 1b, rate 1000 g/ha, evaluated after 13 days, scale 5=total damage to plant, 0=no damage to plant
Protocol: (§1) Seeds of a variety of test species were sown in standard soil in pots: Triticum aestivium (TRZAW), Avena fatua (AVEFA), Alopecurus myosuroides (ALOMY), Echinochloa crus-galli (ECHCG), Lolium perenne (LOLPE), Zea Mays (ZEAMX), Abutilon theophrasti (ABUTH), Amaranthus retroflexus (AMARE) and Setaria faberi (SETFA). After cultivation for one day (pre-emergence) under controlled conditions in a glasshouse (at 24/16° C., day/night; 14 hours light; 65% humidity), the plants were sprayed with an aqueous spray solution derived from the formulation of the technical active ingredient in acetone/water (50:50) solution containing 0.5% Tween 20 (polyoxyethelyene sorbitan monolaurate, CAS RN 9005-64-5). The test plants were then grown in a glasshouse under controlled conditions (at 24/16° C., day/night; 14 hours light; 65% humidity) and watered twice daily. After 13 days, the test was evaluated (5=total damage to plant; 0=no damage to plant).

[2] = tested on: Setaria faberi (SETFA); experiment: B1 pre-emergence herbicidal activity; conditions: Test 1b, rate 1000 g/ha, evaluated after 13 days, scale 5=total damage to plant, 0=no damage to plant
Protocol: as §1

[3] = tested on: Avena fatua (AVEFA); experiment: B1 pre-emergence herbicidal activity; conditions: Test 1b, rate 1000 g/ha, evaluated after 13 days, scale 5=total damage to plant, 0=no damage to plant
Protocol: as §1

[4] = tested on: Triticum aestivium (TRZAW); experiment: B1 pre-emergence herbicidal activity; conditions: Test 1b, rate 1000 g/ha, evaluated after 13 days, scale 5=total damage to plant, 0=no damage to plant
Protocol: as §1

[5] = tested on: Alopecurus myosuroides (ALOMY); experiment: B1 pre-emergence herbicidal activity; conditions: Test 1b, rate 1000 g/ha, evaluated after 13 days, scale 5=total damage to plant, 0=no damage to plant
Protocol: as §1

[6] = tested on: Echinochloa crus-galli (ECHCG); experiment: B1 pre-emergence herbicidal activity; conditions: Test 1b, rate 1000 g/ha, evaluated after 13 days, scale 5=total damage to plant, 0=no damage to plant
Protocol: as §1

[7] = tested on: Lolium perenne (LOLPE); experiment: B2 post-emergence herbicidal activity; conditions: Test B2b; post-emergence (sprayed after 8 days cultivation); rate 1000 g/ha; evaluated after 13 days; scale 5=total damage to plant, 0=no damage to plant
Protocol: (§2) Seeds of a variety of test species were sown in standard soil in pots: Triticum aestivium (TRZAW), Avena fatua (AVEFA), Alopecurus myosuroides (ALOMY), Echinochloa crus-galli (ECHCG), Lolium perenne (LOLPE), Zea Mays (ZEAMX), Abutilon theophrasti (ABUTH), Amaranthus retroflexus (AMARE) and Setaria faberi (SETFA). After 8 days cultivation (post-emergence) under controlled conditions in a glasshouse (at 24/16° C., day/night; 14 hours light; 65% humidity), the plants were sprayed with an aqueous spray solution derived from the formulation of the technical active ingredient in acetone/water (50:50) solution containing 0.5% Tween 20 (polyoxyethelyene sorbitan monolaurate, CAS RN 9005-64-5). The test plants were then grown in a glasshouse under controlled conditions (at 24/16° C., day/night; 14 hours light; 65% humidity) and watered twice daily. After 13 days, the test was evaluated (5=total damage to plant; 0=no damage to plant).

[8] = tested on: Setaria faberi (SETFA); experiment: B2 post-emergence herbicidal activity; conditions: Test B2b; post-emergence (sprayed after 8 days cultivation); rate 1000 g/ha; evaluated after 13 days; scale 5=total damage to plant, 0=no damage to plant
Protocol: as §2

[9] = tested on: Avena fatua (AVEFA); experiment: B2 post-emergence herbicidal activity; conditions: Test B2b; post-emergence (sprayed after 8 days cultivation); rate 1000 g/ha; evaluated after 13 days; scale 5=total damage to plant, 0=no damage to plant
Protocol: as §2

[10] = tested on: Triticum aestivium (TRZAW); experiment: B2 post-emergence herbicidal activity; conditions: Test B2b; post-emergence (sprayed after 8 days cultivation); rate 1000 g/ha; evaluated after 13 days; scale 5=total damage to plant, 0=no damage to plant
Protocol: as §2

[11] = tested on: Alopecurus myosuroides (ALOMY); experiment: B2 post-emergence herbicidal activity; conditions: Test B2b; post-emergence (sprayed after 8 days cultivation); rate 1000 g/ha; evaluated after 13 days; scale 5=total damage to plant, 0=no damage to plant
Protocol: as §2

[12] = tested on: Echinochloa crus-galli (ECHCG); experiment: B2 post-emergence herbicidal activity; conditions: Test B2b; post-emergence (sprayed after 8 days cultivation); rate 1000 g/ha; evaluated after 13 days; scale 5=total damage to plant, 0=no damage to plant
Protocol: as §2

Q: How did the “Control after pre-emergence application, damage score: LOLPE” value [1] turn out when `C=CCNc1cnc(-c2cncnc2)nc1C` [Compound D7] was run?
A: 1

Q: And the “Control after pre-emergence application, damage score: SETFA” value [2]?
A: 4

Q: What about the “Control after pre-emergence application, damage score: AVEFA” value [3] of the same molecule?
A: 1

Q: And the “Control after pre-emergence application, damage score: TRAZW” value [4]?
A: 0

Q: What about the “Control after pre-emergence application, damage score: ALOMY” value [5] of the same molecule?
A: 0

Q: What about the “Control after pre-emergence application, damage score: ECHCG” value [6] of the same molecule?
A: 2

Q: And the “Control after post-emergence application, damage score: LOLPE” value [7]?
A: 0

Q: And the “Control after post-emergence application, damage score: SETFA” value [8]?
A: 4

Q: And the “Control after post-emergence application, damage score: AVEFA” value [9]?
A: 1

Q: What about the “Control after post-emergence application, damage score: TRAZW” value [10] of the same molecule?
A: 1

Q: What about the “Control after post-emergence application, damage score: ALOMY” value [11] of the same molecule?
A: 0

Q: And the “Control after post-emergence application, damage score: ECHCG” value [12]?
A: 2

Q: Which results are given for `CCCN(CCC)c1cnc(-c2cncc(F)c2)nc1C(F)(F)F` [Compound D14, 2-(5-fluoro-3-pyridyl)-N,N-dipropyl-4-(trifluoromethyl)pyrimidin-5-amine]?
A: Control after pre-emergence application, damage score: LOLPE [1]: 1; Control after pre-emergence application, damage score: SETFA [2]: 2; Control after pre-emergence application, damage score: AVEFA [3]: 0; Control after pre-emergence application, damage score: TRAZW [4]: 1; Control after pre-emergence application, damage score: ALOMY [5]: 1; Control after pre-emergence application, damage score: ECHCG [6]: 2; Control after post-emergence application, damage score: LOLPE [7]: 2; Control after post-emergence application, damage score: SETFA [8]: 4; Control after post-emergence application, damage score: AVEFA [9]: 3; Control after post-emergence application, damage score: TRAZW [10]: 0; Control after post-emergence application, damage score: ALOMY [11]: 1; Control after post-emergence application, damage score: ECHCG [12]: 4

Q: How did the “Control after pre-emergence application, damage score: LOLPE” value [1] turn out when `Fc1cncc(-c2ncc(NCc3nccs3)c(C(F)(F)F)n2)c1` [Compound D15] was run?
A: 0

Q: What about the “Control after pre-emergence application, damage score: SETFA” value [2] of the same molecule?
A: 5

Q: What about the “Control after pre-emergence application, damage score: AVEFA” value [3] of the same molecule?
A: 1

Q: What about the “Control after pre-emergence application, damage score: TRAZW” value [4] of the same molecule?
A: 0

Q: And the “Control after pre-emergence application, damage score: ALOMY” value [5]?
A: 0

Q: And the “Control after pre-emergence application, damage score: ECHCG” value [6]?
A: 4

Q: And the “Control after post-emergence application, damage score: LOLPE” value [7]?
A: 2

Q: What about the “Control after post-emergence application, damage score: SETFA” value [8] of the same molecule?
A: 5

Q: And the “Control after post-emergence application, damage score: TRAZW” value [10]?
A: 0

Q: What about the “Control after post-emergence application, damage score: ALOMY” value [11] of the same molecule?
A: 1

Q: What about the “Control after post-emergence application, damage score: ECHCG” value [12] of the same molecule?
A: 5

Q: How did the “Control after pre-emergence application, damage score: LOLPE” value [1] turn out when `Cc1nc(-c2cncnc2)ncc1N` [Compound D3, 4-methyl-2-pyrimidin-5-yl-pyrimidin-5-amine] was run?
A: 1

Q: And the “Control after pre-emergence application, damage score: SETFA” value [2]?
A: 2

Q: And the “Control after pre-emergence application, damage score: AVEFA” value [3]?
A: 0

Q: And the “Control after pre-emergence application, damage score: TRAZW” value [4]?
A: 0

Q: What about the “Control after pre-emergence application, damage score: ALOMY” value [5] of the same molecule?
A: 0

Q: What about the “Control after pre-emergence application, damage score: ECHCG” value [6] of the same molecule?
A: 1

Q: And the “Control after post-emergence application, damage score: LOLPE” value [7]?
A: 1

Q: What about the “Control after post-emergence application, damage score: SETFA” value [8] of the same molecule?
A: 3

Q: And the “Control after post-emergence application, damage score: AVEFA” value [9]?
A: 1

Q: And the “Control after post-emergence application, damage score: TRAZW” value [10]?
A: 0

Q: What about the “Control after post-emergence application, damage score: ALOMY” value [11] of the same molecule?
A: 1

Q: What about the “Control after post-emergence application, damage score: ECHCG” value [12] of the same molecule?
A: 2

Q: Which results are given for `CCCNc1cnc(-c2cncc(F)c2)nc1C(F)(F)F` [Compound D13, 2-(5-fluoro-3-pyridyl)-N-propyl-4-(trifluoromethyl)pyrimidin-5-amine]?
A: Control after pre-emergence application, damage score: LOLPE [1]: 1; Control after pre-emergence application, damage score: SETFA [2]: 2; Control after pre-emergence application, damage score: AVEFA [3]: 0; Control after pre-emergence application, damage score: TRAZW [4]: 1; Control after pre-emergence application, damage score: ALOMY [5]: 0; Control after pre-emergence application, damage score: ECHCG [6]: 1; Control after post-emergence application, damage score: LOLPE [7]: 1; Control after post-emergence application, damage score: SETFA [8]: 4; Control after post-emergence application, damage score: AVEFA [9]: 3; Control after post-emergence application, damage score: TRAZW [10]: 0; Control after post-emergence application, damage score: ALOMY [11]: 0; Control after post-emergence application, damage score: ECHCG [12]: 4

Q: What does the source list for `Nc1cnc(-c2cncnc2)nc1C(F)(F)F` [Compound D9]?
A: Control after pre-emergence application, damage score: LOLPE [1]: 1; Control after pre-emergence application, damage score: SETFA [2]: 4; Control after pre-emergence application, damage score: AVEFA [3]: 2; Control after pre-emergence application, damage score: TRAZW [4]: 0; Control after pre-emergence application, damage score: ALOMY [5]: 0; Control after pre-emergence application, damage score: ECHCG [6]: 3; Control after post-emergence application, damage score: LOLPE [7]: 2; Control after post-emergence application, damage score: SETFA [8]: 5; Control after post-emergence application, damage score: AVEFA [9]: 3; Control after post-emergence application, damage score: TRAZW [10]: 0; Control after post-emergence application, damage score: ALOMY [11]: 0; Control after post-emergence application, damage score: ECHCG [12]: 3
